Patent US20040018941A1, “Fused-benzene derivatives of thiouracil, herbicidal and desiccant compositions contaning them” (ISHIHARA SANGYO KAISHA, LTD., priority 2002, published 2004)

How the values were obtained:
Type in all cases: in vivo
Details in all cases: rating 0-100 (0 no damage, 100 complete death), 14 days after application
[1] = tested on: redroot pigweed (Amaranthus retroflexus, AMARE); test: Pre-emerge herbicidal activity, greenhouse screen, AMARE
Description: (§1) A standard greenhouse herbicide activity screening system was used to evaluate the herbicidal efficacy and crop safety of these test compounds. Seven broadleaf weed species including redroot pigweed (Amaranthus retroflexus, AMARE), velvetleaf (Abutilon theophrasti, ABUTH), sicklepod (Cassia obtusifolia, CASOB), ivyleaf morningglory (Ipomoea hederacea, IPOHE), lambsquarters (Chenopodium album, CHEAL), common ragweed (Ambrosia artemisiifolia L., AMBEL), and cocklebur (Xanthium strumarium, XANST) were used as test species. Four grass weed species including green foxtail (Setaria viridis, SETVI), barnyardgrass (Echinochloa crus-galli, ECHCG), johnsongrass (Sorghum halepense, SORHA), and large crabgrass (Digitaria sanguinalis, DIGSA) were also used. In addition, three crop species, field corn (Zea mays L., var. Dekalb 527, CORN), soybean (Glycine max L., var. Pella 86, SOY), and upland rice (Oryza sp., var. Tebonnet, RICE) were included.
(§2) All plants were grown in 10 cm square plastic pots which were filled with a sandy loam soil mix. For pre-emerge tests, seeds were planted one day prior to application of the test compounds. For post-emerge tests, seeds were planted 8-21 days prior to the test to allow emergence and good foliage development prior to application of the test substances. At the time of the post-emerge application, plants of all species were usually at the 2-3 leaf stage of development.
(§3) All test compounds were dissolved in acetone and applied to the test units in a volume of 187 l/ha. Test materials were applied at rates ranging from 15 g ai/ha to 1000 g ai/ha using a track sprayer equipped with a TJ8001 E even flow flat fan spray nozzle. Plants were arranged on a shelf so that the top of the canopy (post-emerge) or top of the soil surface (pre-emerge) was 40-45 cm below the nozzle. Pressurized air was used to force the test solution through the nozzle as it was mechanically advanced over the top of all test plants/pots. This application simulates a typical commercial field herbicide application.
(§4) In the post-emerge test, a commercial non-ionic surfactant was also included (0.25% v/v) to enhance wetting of the leaf surfaces of target plants. Immediately after application, test units of the pre-emerge applications were watered at the soil surface to incorporate the test materials.
(§5) At 14 days after application of the test materials, phytotoxicity ratings were recorded. A rating scale of 0-100 was used as previously described in Research Methods in Weed Science, 2nd edition, B. Truelove, Ed., Southern Weed Science Society, Auburn University, Auburn, Ala., 1977. Briefly, “0” corresponds to no damage and “100” corresponds to complete death of all plants in the test unit. This scale was used both to determine efficacy against weed species and damage to crop species. Herbicide activity data for various compounds of this invention, which are shown by compound No. in Tables 1-7, are shown in Tables 8 and 9.

[2] = tested on: velvetleaf (Abutilon theophrasti, ABUTH); test: Pre-emerge herbicidal activity, greenhouse screen, ABUTH
Description: as §1, §2, §3, §4, §5

[3] = tested on: sicklepod (Cassia obtusifolia, CASOB); test: Pre-emerge herbicidal activity, greenhouse screen, CASOB
Description: as §1, §2, §3, §4, §5

[4] = tested on: ivyleaf morningglory (Ipomoea hederacea, IPOHE); test: Pre-emerge herbicidal activity, greenhouse screen, IPOHE
Description: as §1, §2, §3, §4, §5

[5] = tested on: lambsquarters (Chenopodium album, CHEAL); test: Pre-emerge herbicidal activity, greenhouse screen, CHEAL
Description: as §1, §2, §3, §4, §5

[6] = tested on: common ragweed (Ambrosia artemisiifolia L., AMBEL); test: Pre-emerge herbicidal activity, greenhouse screen, AMBEL
Description: as §1, §2, §3, §4, §5

[7] = tested on: green foxtail (Setaria viridis, SETVI); test: Pre-emerge herbicidal activity, greenhouse screen, SETVI
Description: as §1, §2, §3, §4, §5

[8] = tested on: barnyardgrass (Echinochloa crus-galli, ECHCG); test: Pre-emerge herbicidal activity, greenhouse screen, ECHCG
Description: as §1, §2, §3, §4, §5

[9] = tested on: johnsongrass (Sorghum halepense, SORHA); test: Pre-emerge herbicidal activity, greenhouse screen, SORHA
Description: as §1, §2, §3, §4, §5

[10] = tested on: large crabgrass (Digitaria sanguinalis, DIGSA); test: Pre-emerge herbicidal activity, greenhouse screen, DIGSA
Description: as §1, §2, §3, §4, §5

[11] = tested on: redroot pigweed (Amaranthus retroflexus, AMARE); test: Post-emerge herbicidal activity, greenhouse screen, AMARE
Description: as §1, §2, §3, §4, §5

[12] = tested on: velvetleaf (Abutilon theophrasti, ABUTH); test: Post-emerge herbicidal activity, greenhouse screen, ABUTH
Description: as §1, §2, §3, §4, §5

[13] = tested on: sicklepod (Cassia obtusifolia, CASOB); test: Post-emerge herbicidal activity, greenhouse screen, CASOB
Description: as §1, §2, §3, §4, §5

[14] = tested on: ivyleaf morningglory (Ipomoea hederacea, IPOHE); test: Post-emerge herbicidal activity, greenhouse screen, IPOHE
Description: as §1, §2, §3, §4, §5

[15] = tested on: lambsquarters (Chenopodium album, CHEAL); test: Post-emerge herbicidal activity, greenhouse screen, CHEAL
Description: as §1, §2, §3, §4, §5

[16] = tested on: common ragweed (Ambrosia artemisiifolia L., AMBEL); test: Post-emerge herbicidal activity, greenhouse screen, AMBEL
Description: as §1, §2, §3, §4, §5

[17] = tested on: green foxtail (Setaria viridis, SETVI); test: Post-emerge herbicidal activity, greenhouse screen, SETVI
Description: as §1, §2, §3, §4, §5

[18] = tested on: barnyardgrass (Echinochloa crus-galli, ECHCG); test: Post-emerge herbicidal activity, greenhouse screen, ECHCG
Description: as §1, §2, §3, §4, §5

[19] = tested on: johnsongrass (Sorghum halepense, SORHA); test: Post-emerge herbicidal activity, greenhouse screen, SORHA
Description: as §1, §2, §3, §4, §5

[20] = tested on: large crabgrass (Digitaria sanguinalis, DIGSA); test: Post-emerge herbicidal activity, greenhouse screen, DIGSA
Description: as §1, §2, §3, §4, §5

## Cn1c(C(F)(F)F)cc(=O)n(-c2c(F)cc(Cl)c3nc(C(C)(C)C)oc23)c1=S [Compound 1-3, 3-[2-t-butyl-4-chloro-6-fluoro-1,3-benzoxazol-7-yl]-1-methyl-2-thioxo-6-(trifluoromethyl)-2,3-dihydropyrimidin-4(1H)-one]
[1]; 63 g ai/ha
  Pre-emerge Herbicidal Activity AMARE: 100
[1]; 250 g ai/ha
  Pre-emerge Herbicidal Activity AMARE: 100
[2]; 63 g ai/ha
  Pre-emerge Herbicidal Activity ABUTH: 100
[2]; 250 g ai/ha
  Pre-emerge Herbicidal Activity ABUTH: 100
[3]; 63 g ai/ha
  Pre-emerge Herbicidal Activity CASOB: 95
[3]; 250 g ai/ha
  Pre-emerge Herbicidal Activity CASOB: 100
[4]; 63 g ai/ha
  Pre-emerge Herbicidal Activity IPOHE: 95
[4]; 250 g ai/ha
  Pre-emerge Herbicidal Activity IPOHE: 100
[5]; 63 g ai/ha
  Pre-emerge Herbicidal Activity CHEAL: 100
[5]; 250 g ai/ha
  Pre-emerge Herbicidal Activity CHEAL: 100
[6]; 63 g ai/ha
  Pre-emerge Herbicidal Activity AMBEL: 99
[6]; 250 g ai/ha
  Pre-emerge Herbicidal Activity AMBEL: 100
[7]; 63 g ai/ha
  Pre-emerge Herbicidal Activity SETVI: 100
[7]; 250 g ai/ha
  Pre-emerge Herbicidal Activity SETVI: 100
[8]; 63 g ai/ha
  Pre-emerge Herbicidal Activity ECHCG: 100
[8]; 250 g ai/ha
  Pre-emerge Herbicidal Activity ECHCG: 100
[9]; 63 g ai/ha
  Pre-emerge Herbicidal Activity SORHA: 100
[9]; 250 g ai/ha
  Pre-emerge Herbicidal Activity SORHA: 100
[10]; 63 g ai/ha
  Pre-emerge Herbicidal Activity DIGSA: 100
[10]; 250 g ai/ha
  Pre-emerge Herbicidal Activity DIGSA: 100
[11]; 63 g ai/ha
  Post-emerge Herbicidal Activity AMARE: 100
[11]; 250 g ai/ha
  Post-emerge Herbicidal Activity AMARE: 100
[12]; 63 g ai/ha
  Post-emerge Herbicidal Activity ABUTH: 100
[12]; 250 g ai/ha
  Post-emerge Herbicidal Activity ABUTH: 100
[13]; 63 g ai/ha
  Post-emerge Herbicidal Activity CASOB: 70
[13]; 250 g ai/ha
  Post-emerge Herbicidal Activity CASOB: 100
[14]; 63 g ai/ha
  Post-emerge Herbicidal Activity IPOHE: 100
[14]; 250 g ai/ha
  Post-emerge Herbicidal Activity IPOHE: 100
[15]; 63 g ai/ha
  Post-emerge Herbicidal Activity CHEAL: 100
[15]; 250 g ai/ha
  Post-emerge Herbicidal Activity CHEAL: 100
[16]; 63 g ai/ha
  Post-emerge Herbicidal Activity AMBEL: 99
[16]; 250 g ai/ha
  Post-emerge Herbicidal Activity AMBEL: 100
[17]; 63 g ai/ha
  Post-emerge Herbicidal Activity SETVI: 99
[17]; 250 g ai/ha
  Post-emerge Herbicidal Activity SETVI: 100
[18]; 63 g ai/ha
  Post-emerge Herbicidal Activity ECHCG: 100
[18]; 250 g ai/ha
  Post-emerge Herbicidal Activity ECHCG: 100
[19]; 63 g ai/ha
  Post-emerge Herbicidal Activity SORHA: 65
[19]; 250 g ai/ha
  Post-emerge Herbicidal Activity SORHA: 85
[20]; 63 g ai/ha
  Post-emerge Herbicidal Activity DIGSA: 50
[20]; 250 g ai/ha
  Post-emerge Herbicidal Activity DIGSA: 65
